Values quoted from earlier work in US20230080958A1, “METHODS OF TREATING PSEUDOBULBAR AFFECT AND OTHER EMOTIONAL DISTURBANCES” (Woolsey Pharmaceuticals, Inc., priority 2020, published 2023).

Tests used:
[1] = system: patients with sub-cortical vascular dementia
[2] = 1-hydroxy (M3) metabolite, in vivo (Shibuya 2001)

Compound | emotional incontinence (compulsive laughing and/or crying) ([1]; Kamei publication and Japanese patent application 6-293643, three patients, no assessment or diagnosis of PBA) | wandering (primary outcome) ([1]; two patients with sub-cortical vascular dementia, open-label, no control group, concomitant medications (Kamei 1996)) | half-life [2]
O=S(=O)(c1cccc2cnccc12)N1CCCNCC1 [fasudil, hexahydro-1-(5-isoquinolinesulfonyl)-1H-1,4-diazepine] | improvements | mitigated wandering | 
O=S(=O)(c1cccc2c(O)nccc12)N1CCCNCC1 [M3] |  |  | about 8 hours
